# Data reported in article PMC13330650 (Matrix biology : journal of the International Society for …, 2025).
# Residue numbers refer to the chain shown, from its start.
# How the values were obtained:
# UGDH S316A [1] = target: T1, UGDH S316A (Homo sapiens, UniProt O60701, S316A); experiment: isothermal titration calorimetry, UDP-Xylose binding to UGDH S316A; conditions: ITC, single-site binding model
# T1 construct: six-histidine; made in house; host or cells: E. coli BL21(DE3)
# T1 sequence (O60701 1-494 S316A): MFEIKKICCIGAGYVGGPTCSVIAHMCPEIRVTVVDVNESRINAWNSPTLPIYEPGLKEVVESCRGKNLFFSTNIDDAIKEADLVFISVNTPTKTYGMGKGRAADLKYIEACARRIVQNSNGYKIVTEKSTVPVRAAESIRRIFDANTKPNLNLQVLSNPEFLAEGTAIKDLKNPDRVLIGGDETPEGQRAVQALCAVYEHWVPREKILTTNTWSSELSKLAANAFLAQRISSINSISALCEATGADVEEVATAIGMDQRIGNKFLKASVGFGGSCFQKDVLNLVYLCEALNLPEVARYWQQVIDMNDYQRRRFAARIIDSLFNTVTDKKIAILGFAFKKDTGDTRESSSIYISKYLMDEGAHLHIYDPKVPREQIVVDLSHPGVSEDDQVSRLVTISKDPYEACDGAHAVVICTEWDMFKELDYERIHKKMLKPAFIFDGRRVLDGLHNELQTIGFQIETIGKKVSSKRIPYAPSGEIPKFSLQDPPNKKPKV
# Source text: (§1) Finally, we tested whether the S316 point mutants impacted inhibition of UGDH by UDP-xylose (UDP-Xyl), which is an endogenous competitive inhibitor of UGDH with nM affinity that causes a conformational change in the crystal structure exposing one of the dimer interfaces. We measured the concentration dependence of UDP-Xyl inhibition in the context of the catalytic reaction at sub-saturating UDP-Glc and NAD^+ and used the resultant curves to calculate the IC50 for UGDH S316A and S316D (Table 1). […] Binding of UDP-Xyl to UGDH independently of catalysis was measured by ITC. […]
# (§2) Purified S316 mutants were compared to the UGDH WT enzyme using the following approaches as previously described. Enzymatic activity was evaluated by steady state kinetics in the presence and absence of the endogenous inhibitor UDP-Xylose to compare Michaelis constants and IC50 values. Intrinsic stability was assessed by thermal denaturation and quaternary structure was determined by size exclusion chromatography. Binding of UDP-Xylose to recombinant UGDH and mutants was measured by isothermal titration calorimetry using the MicroCal PEAQ-ITC (Malvern Panalytical). […] Binding heats were corrected for the heat of dilution and analyzed using the MicroCal PEAQ-ITC Analysis Software, employing a single-site binding model to determine Kd values.
# UGDH WT [2] = target: T2, UGDH WT (Homo sapiens, UniProt O60701); experiment: UDP-Xyl inhibition of the catalytic reaction, UGDH WT; format: biochemical; conditions: sub-saturating UDP-Glc and NAD+, read-out: UDP-Xylose IC50
# T2 construct: six-histidine; made in house; host or cells: E. coli BL21(DE3)
# T2 sequence (O60701 1-494): T1 sequence (O60701 1-494 S316A) with A316S
# Source text: as §1, §2
# UGDH S316D [3] = target: T3, UGDH S316D (Homo sapiens, UniProt O60701, S316D); experiment: UDP-Xyl inhibition of the catalytic reaction, UGDH S316D; format: biochemical; conditions: sub-saturating UDP-Glc and NAD+, read-out: UDP-Xylose IC50
# T3 construct: six-histidine; made in house; host or cells: E. coli BL21(DE3)
# T3 sequence (O60701 1-494 S316D): T1 sequence (O60701 1-494 S316A) with A316D
# Source text: as §1, §2
# UGDH S316A [4] = target: T1, UGDH S316A; experiment: UDP-Xyl inhibition of the catalytic reaction, UGDH S316A; format: biochemical; conditions: sub-saturating UDP-Glc and NAD+, read-out: UDP-Xylose IC50
# Source text: as §1, §2
# UGDH WT [5] = target: T2, UGDH WT; experiment: isothermal titration calorimetry, UDP-Xylose binding to UGDH WT; conditions: ITC, single-site binding model
# Source text: as §1, §2
# [6] = target: T4, UGDH S316 phosphorylation by RSK2, S6K1, SGK1 (Homo sapiens, UniProt O60701); experiment: in vitro kinase assay, phosphorylation of UGDH S316; format: biochemical; conditions: in vitro kinase assays with RSK2, S6K1, SGK1; data not shown
# T4 construct: made in house
# T4 sequence (O60701 1-494): T1 sequence (O60701 1-494 S316A) with A316S
# Description: Due to the location of UGDH S316 at the dimeric interface, we tested whether UGDH oligomeric status influenced the ability of each kinase to phosphorylate UGDH S316. In vitro kinase assays were performed to compare phosphorylation of UGDH S316 in the WT enzyme versus the UGDH T325D obligate dimer mutant. All three kinases produced a phosphorylation band in the dimeric UGDH T325D as expected.
# Recombinant UGDH (100 μg) was incubated for 2 h at 30 °C with 1 μg of each kinase and either activated by addition of ATP (200 μM) or a conjugatable ATP analogue, γ-[(6-Azidohexyl)-imido]-ATP. Phosphorylated UGDH was detected by western analysis (using anti-pAkT substrate antibody) or by SDS-PAGE following reaction with tetramethylrhodamine (TAMRA) alkyne, copper, THPTA, and sodium ascorbate.
# UGDH S316D [7] = target: T3, UGDH S316D; experiment: isothermal titration calorimetry, UDP-Xylose binding to UGDH S316D; conditions: ITC
# Source text: as §1, §2
compound,measurement,setting,value
O=c1ccn([C@@H]2O[C@H](COP(=O)(O)OP(=O)(O)O[C@H]3OC[C@@H](O)[C@H](O)[C@H]3O)[C@@H](O)[C@H]2O)c(=O)[nH]1 [UDP-Xylose],Kd,UGDH S316A [1],0.071 ± 0.02 µM
same,IC50,UGDH WT [2],0.22 ± 0.05 µM
same,IC50,UGDH S316D [3],0.25 ± 0.03 µM
same,IC50,UGDH S316A [4],0.25 ± 0.06 µM
same,Kd,UGDH WT [5],0.091 ± 0.035 µM
same,effect of UDP-Xyl on phosphorylation of UGDH S316,[6],did not impact phosphorylation
same,Kd for UGDH S316D relative to Kd values for UGDH WT and S316A,UGDH S316D [7]; higher for S316D,≈ 2 fold
same,Kd,"UGDH S316D [7]; UGDH S316D, single-site binding model",0.15 ± 0.03 µM
